According to patent US20250032651A1, “[177LU] LUTETIUM-PSMA I&T COMPOSITION AND DOSIMETRY, KIT, METHOD OF MAKING, AND METHOD OF USING THEREOF” (Curium US LLC, priority 2022, published 2025):

Test: Normal organ dosimetry Cycle 1: SPECT/CT, TIACs, OLINDA 2.2.3 absorbed radiation dose
Type: in vivo, human
Details: for Absorbed Dose, Mean / Absorbed Dose, max / Absorbed Dose, median / Absorbed Dose, min: n = 26
Description: This Example presents the biodistribution, dosimetry, and pharmacokinetics (PK) results of a PK/Dosimetry sub-study performed as part of a Phase III trial. Twenty-seven (27) patients were administered a target activity of 7.4±10% GBq of ^177Lu-PSMA-I&T and underwent single photon emission computed tomography (SPECT)/computed tomography (CT) imaging at four timepoints (4 h, 24 h, 48 h, and 168 h). Image data was analysed to compute time-activity curves (TACs) and subsequently time-integrated activity coefficients (TIACs) in each organ of interest and in organs showing appreciable and meaningful ^177Lu-PSMA-I&T activity. Organ Level Internal Dose Assessment (OLINDA 2.2.3) was used to compute organ and whole body absorbed radiation doses for each patient.
All participating sites underwent a rigorous site setup process during which all dose calibrators, scanners, and gamma counters used in the sub-study were calibrated. Sites were allowed to enroll patients in the sub-study only after the completion and approval of all site setup processes by Invicro. Patients underwent SPECT/CT imaging, with anatomical coverage typically extending from the salivary glands to the pelvis, following the administration of a targeted 7.4±10% GBq of ^177Lu-PSMA-I&T at cycle 1. SPECT/CT imaging was performed at four timepoints: 4 h, 24 h, 48 h, and 168 h post-injection. Additionally, a subset of patients imaged at Cycle 1 (16 out of 27), were also imaged at Cycle 3 (Table 2).
The imaging data was analyzed using Invicro's VivoQuant software, a validated software used in a 21 CFR § 11-compliant workflow. The general quantification approach was based on the principles detailed in the Medical Internal Radiation Dose (MIRD) Pamphlet No. 16, No 23, and No 26 as appropriate.
Volume of interest (VOI) (kidneys, bladder, liver, lumbar vertebrae L2-L4, lacrimal glands, salivary glands [parotid and submandibular glands], and whole body) were delineated on each dataset by a trained image analyst. […] Organs were segmented either by drawing the entire contour of the organ, or by placing a sphere in a representative region of the organ and then multiplying by the organ's effective mass (based on patient's height and weight). Segmentation methods for each organ are specified in Table 3 and were consistently applied to each patient.
Clearance of the radiopharmaceutical was derived from a data-appropriate fit of each organ's TAC. Depending on the TAC's shape, the data was fitted with the sum of one, two, or three exponentials, or using a rise and fall model. Fitting was performed with in-house Python software. TIACs were calculated through analytical integration of the curve fit extrapolated to infinity. […] A whole-body TAC was derived from delineating the imaged body. The remainder activity was determined by subtracting the cumulative organ TIACs from the whole body TIAC.
Organ TIACs were input into OLINDA 2.2.3 for the computation of organ and whole-body absorbed doses, using International Commission on Radiological Protection (ICRP)-103 weighing factors. The ICRP-89 derived male phantom was used for dose estimation. Organs and body mass as defined by ICRP-89 were scaled based on height and mass using patient effective mass.^4 The voiding bladder model as implemented in OLINDA was used to determine bladder TIAC, assuming a voiding interval of 4 hours. The human alimentary tract model (HAT model) described in ICRP 100 and implemented in OLINDA was used to compute doses to the small intestine, right colon, left colon and rectum for patients showing clearance through the GI tract. The fraction of injected activity (fIA) cleared via the GI tract was determined by taking the peak fIA in the GI tract over all the imaging timepoints. […] The Red Marrow mass in L2-L4 was assumed to be 6.7% of the total red marrow mass.

[1] = Adrenals, 16 patients imaged at cycle 1 and 3
[2] = Brain, 16 patients imaged at cycle 1 and 3
[3] = Cycle 1, target activity 7.4±10% GBq, patients with mCRPC
[4] = Esophagus, 16 patients imaged at cycle 1 and 3
[5] = Eyes, 16 patients imaged at cycle 1 and 3
[6] = Gallbladder wall, 16 patients imaged at cycle 1 and 3
[7] = Heart wall, 16 patients imaged at cycle 1 and 3

O=C([O-])CC[C@H](NC(=O)N[C@@H](CCCCNC(=O)CCCCCCC(=O)NCCCC[C@@H](NC(=O)[C@@H](Cc1ccccc1)NC(=O)[C@@H](Cc1ccc(O)c(I)c1)NC(=O)CC[C@H](C(=O)[O-])N1CCN(CC(=O)[O-])CCN(CC(=O)[O-])CCN(CC(=O)[O-])CC1)C(=O)[O-])C(=O)[O-])C(=O)[O-].[177Lu+3].[H+].[H+].[H+].[H+].[H+] [^177Lu-PSMA I&T, (3S,7S,26R,29R,32R,37R)-29-benzyl-32-(4-hydroxy-3-iodobenzyl)-5,13,20,28,31,34-hexaoxo-37-(4,7,10-tris(carboxymethyl)-1,4,7,10-tetraazacyclododecan-1-yl)-4,6,12,21,27,30,33-heptaazaheptatriacontane-1,3,7,26,37-pentacarboxylic acid; lutetium-177 (III)]
Absorbed Dose in Cycle 1, Mean [1]: 0.02 Gy/GBq
Absorbed Dose in Cycle 1, max [1]: 0.08 Gy/GBq
Absorbed Dose in Cycle 1, min [1]: 0.01 Gy/GBq
Absorbed Dose, Mean (Adrenals, Cycle 1): 0.02 Gy/GBq
Absorbed Dose, max (Adrenals, Cycle 1): 0.08 Gy/GBq
Absorbed Dose, median (Adrenals, Cycle 1): 0.02 Gy/GBq
Absorbed Dose, min (Adrenals, Cycle 1): 0.01 Gy/GBq
Absorbed Dose in Cycle 1, Mean (Adrenals, N = 16): 0.02 Gy/GBq
Absorbed Dose in Cycle 1, max (Adrenals, N = 16): 0.08 Gy/GBq
Absorbed Dose in Cycle 1, min (Adrenals, N = 16): 0.01 Gy/GBq
Absorbed Dose in Cycle 1, Mean [2]: 0.01 Gy/GBq
Absorbed Dose in Cycle 1, max [2]: 0.07 Gy/GBq
Absorbed Dose in Cycle 1, min [2]: 0.00 Gy/GBq
Absorbed Dose, Mean (Brain, Cycle 1): 0.01 Gy/GBq
Absorbed Dose, max (Brain, Cycle 1): 0.07 Gy/GBq
Absorbed Dose, median (Brain, Cycle 1): 0.01 Gy/GBq
Absorbed Dose, min (Brain, Cycle 1): 0.00 Gy/GBq
Absorbed Dose in Cycle 1, Mean (Brain, N = 16): 0.01 Gy/GBq
Absorbed Dose in Cycle 1, max (Brain, N = 16): 0.07 Gy/GBq
Absorbed Dose in Cycle 1, min (Brain, N = 16): 0.00 Gy/GBq
mean red marrow (bone marrow) absorbed radiation dose (Cycle 1, image-based, L2-L4): 0.08±0.12 Gy/GBq
mean red marrow absorbed dose (Cycle 1, remaining 20 patients, excluding six high-marrow-dose cases and the superscan patient): 0.02±0.02 Gy/GBq
absorbed radiation dose, salivary glands (mean ± SD) (Cycle 1, target activity 7.4±10% GBq, patient 12-004 excluded): 0.19±0.16 Gy/GBq
absorbed radiation dose, kidneys (mean ± SD) [3]: 0.41±0.15 Gy/GBq
absorbed radiation dose, lacrimal glands (mean ± SD) [3]: 0.40±0.36 Gy/GBq
absorbed radiation dose, left colon (mean ± SD) [3]: 0.47±0.31 Gy/GBq
absorbed radiation dose, rectum (mean ± SD) [3]: 0.44±0.30 Gy/GBq
absorbed radiation dose, urinary bladder (mean ± SD) [3]: 0.41±0.05 Gy/GBq
Absorbed Dose in Cycle 1, Mean [4]: 0.01 Gy/GBq
Absorbed Dose in Cycle 1, max [4]: 0.07 Gy/GBq
Absorbed Dose in Cycle 1, min [4]: 0.00 Gy/GBq
Absorbed Dose, Mean (Esophagus, Cycle 1): 0.02 Gy/GBq
Absorbed Dose, max (Esophagus, Cycle 1): 0.07 Gy/GBq
Absorbed Dose, median (Esophagus, Cycle 1): 0.01 Gy/GBq
Absorbed Dose, min (Esophagus, Cycle 1): 0.00 Gy/GBq
Absorbed Dose in Cycle 1, Mean (Esophagus, N = 16): 0.01 Gy/GBq
Absorbed Dose in Cycle 1, max (Esophagus, N = 16): 0.07 Gy/GBq
Absorbed Dose in Cycle 1, min (Esophagus, N = 16): 0.00 Gy/GBq
Absorbed Dose in Cycle 1, Mean [5]: 0.01 Gy/GBq
Absorbed Dose in Cycle 1, max [5]: 0.07 Gy/GBq
Absorbed Dose in Cycle 1, min [5]: 0.00 Gy/GBq
Absorbed Dose, Mean (Eyes, Cycle 1): 0.01 Gy/GBq
Absorbed Dose, max (Eyes, Cycle 1): 0.07 Gy/GBq
Absorbed Dose, median (Eyes, Cycle 1): 0.01 Gy/GBq
Absorbed Dose, min (Eyes, Cycle 1): 0.00 Gy/GBq
Absorbed Dose in Cycle 1, Mean (Eyes, N = 16): 0.01 Gy/GBq
Absorbed Dose in Cycle 1, max (Eyes, N = 16): 0.07 Gy/GBq
Absorbed Dose in Cycle 1, min (Eyes, N = 16): 0.00 Gy/GBq
Absorbed Dose in Cycle 1, Mean [6]: 0.02 Gy/GBq
Absorbed Dose in Cycle 1, max [6]: 0.07 Gy/GBq
Absorbed Dose in Cycle 1, min [6]: 0.00 Gy/GBq
Absorbed Dose, Mean (Gallbladder wall, Cycle 1): 0.02 Gy/GBq
Absorbed Dose, max (Gallbladder wall, Cycle 1): 0.07 Gy/GBq
Absorbed Dose, median (Gallbladder wall, Cycle 1): 0.01 Gy/GBq
Absorbed Dose, min (Gallbladder wall, Cycle 1): 0.00 Gy/GBq
Absorbed Dose in Cycle 1, Mean (Gallbladder wall, N = 16): 0.02 Gy/GBq
Absorbed Dose in Cycle 1, max (Gallbladder wall, N = 16): 0.07 Gy/GBq
Absorbed Dose in Cycle 1, min (Gallbladder wall, N = 16): 0.00 Gy/GBq
Absorbed Dose in Cycle 1, Mean [7]: 0.01 Gy/GBq
Absorbed Dose in Cycle 1, max [7]: 0.07 Gy/GBq
Absorbed Dose in Cycle 1, min [7]: 0.00 Gy/GBq
Absorbed Dose, Mean (Heart wall, Cycle 1): 0.02 Gy/GBq
Absorbed Dose, max (Heart wall, Cycle 1): 0.07 Gy/GBq
Absorbed Dose, median (Heart wall, Cycle 1): 0.01 Gy/GBq
Absorbed Dose, min (Heart wall, Cycle 1): 0.00 Gy/GBq
Absorbed Dose in Cycle 1, Mean (Heart wall, N = 16): 0.01 Gy/GBq
Absorbed Dose in Cycle 1, max (Heart wall, N = 16): 0.07 Gy/GBq
